In patent US7875745B2, “Compounds having lysophosphatidic acid receptor antagonism and uses thereof” (Ono Pharmaceutical Co., Ltd., priority 2003, dated 2011):

How the values were obtained:
[1] = tested on: urethral pressure of rats; experiment: Effect on urethral pressure of rats (in vivo); design: species or system rat; conditions: anesthetized male CD(SD)IGS rats, intravenous, dose of 0.1 mg/kg to 1 mg/kg
Excerpt: Effect on Urethral Pressure of Rats (in vivo):
Male CD(SD)IGS rats (Japan Charles River, 8 to 9-week-old at the use) were anesthetized by subcutaneous administration of urethane (1.2 g/kg). After dissection at the cervical midline, a jugular vein catheter for compound administration and an artery catheter for blood pressure measurement were inserted. Next, after dissection at the hypogastric midline, the urethra was ligated under the pubic bone. An urethra catheter for urethral pressure measurement was inserted into the urethra from the dissected the top of the bladder, and ligated and fixed at the bladder neck. Each of the urethra catheter and the artery catheter was connected with a pressure-transducer, and the urethral pressure and blood pressure were measured. […] Then, the test compound was intravenously administered, and the urethral pressure and blood pressure were measured for 20 minutes. […]
The test compound was administered at respective doses. […] For the evaluation of the effect of the test compound on the urethral pressure, the values subtracting the urethral pressure before the administration from the measured urethral pressures every 2 minutes after the administration were obtained and a graph of the change with time (decreased amount of the urethral pressure from the base line) was prepared.

human EDG-2 = target: T1, human EDG-2 (Homo sapiens, UniProt Q92633); experiment: Evaluation of EDG-2 antagonistic activity by monitoring the change of intracellular calcium ion concentration; type: cell-based; conditions: CHO cells overexpressing human EDG-2 gene; LPA 100 nM; intracellular calcium (Fura2-AM)
T1 construct: expressed in transfected cells; host or cells: Chinese hamster ovary (CHO) cells
Experimental: Evaluation of EDG-2 Antagonistic Activity by Monitoring the Change of Intracellular Calcium Ion Concentration:
The EDG-2 antagonistic activity was evaluated by using Chinese hamster ovary (CHO) cells which overexpressed human EDG-2 gene. The EDG-2-expressing cells were cultured with Ham's F12 medium (manufactured by GIBCO BRL, No. 11765-047) containing 10% FBS (fetal bovine serum), penicillin/streptomycin and blasticidin (5 μg/ml). Firstly, in order to incorporate Fura2-AM (manufactured by Dojindo, No. 348-05831) into the cells, the cells were incubated in 5 μM Fura2-AM solution (10% FBS, 20 mM HEPES buffer (pH 7.4), 2.5 mM probenecid (manufactured by Sigma, No. P-8761)-containing Ham's F12 medium) at 37° C. for 60 minutes. […] A plate was set in a fluorescence drug screening system (manufactured by Hamamatsu Photonics K.K., FDSS-2000, FDSS-6000) and intracellular calcium ion concentration was measured for 30 seconds without stimulation, and a solution of the compound of present invention was added. Five minutes thereafter, LPA (final concentration: 100 nM) was added, and the intracellular calcium ion concentration before and after the addition at the interval of 3 seconds (excitation wavelength: 340 nm and 380 nm, fluorescence wavelength: 500 nm). […]

T1 sequence (Q92633 whole entry): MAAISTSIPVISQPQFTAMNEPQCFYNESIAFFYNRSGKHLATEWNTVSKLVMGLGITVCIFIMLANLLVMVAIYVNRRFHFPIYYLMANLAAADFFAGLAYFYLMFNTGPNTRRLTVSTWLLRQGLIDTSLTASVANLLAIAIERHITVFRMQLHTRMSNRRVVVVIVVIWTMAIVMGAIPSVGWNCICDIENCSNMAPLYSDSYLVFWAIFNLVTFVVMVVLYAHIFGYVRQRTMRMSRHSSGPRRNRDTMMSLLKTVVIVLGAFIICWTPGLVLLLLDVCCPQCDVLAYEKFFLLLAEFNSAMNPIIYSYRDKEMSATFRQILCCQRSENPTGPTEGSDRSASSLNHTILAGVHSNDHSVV

With `COc1cc([C@@H](O)[C@@H](CCCc2ccccc2)Cc2ccc(CC(=O)O)cc2)cc(OC)c1OC` [Example 20(2), (4-{(2S)-2-[(S)-hydroxy(3,4,5-trimethoxyphenyl)methyl]-5-phenylpentyl}phenyl)acetic acid] the “change of the urethral pressure after administration” value [1] was “significantly remarkable decrease of the urethral pressure”, the “maximum decreased amount of the urethral pressure, of the absolute value of the urethral pressure (pressure before administration - base line value after death)” value [1] was 30 to 40% and the IC50 (human EDG-2) was 40 nM.
